This is an account of results in US8349850B2, “Heterocyclic compounds and uses thereof in the treatment of sexual disorders” (ATIR Holding S.A., priority 2006, dated 2013).

In one assay the target is T1, D4.4 receptor (Homo sapiens, UniProt P21917).
T1 construct: expressed in transfected cells; host or cells: CHO cells
T1 sequence (P21917 1-419): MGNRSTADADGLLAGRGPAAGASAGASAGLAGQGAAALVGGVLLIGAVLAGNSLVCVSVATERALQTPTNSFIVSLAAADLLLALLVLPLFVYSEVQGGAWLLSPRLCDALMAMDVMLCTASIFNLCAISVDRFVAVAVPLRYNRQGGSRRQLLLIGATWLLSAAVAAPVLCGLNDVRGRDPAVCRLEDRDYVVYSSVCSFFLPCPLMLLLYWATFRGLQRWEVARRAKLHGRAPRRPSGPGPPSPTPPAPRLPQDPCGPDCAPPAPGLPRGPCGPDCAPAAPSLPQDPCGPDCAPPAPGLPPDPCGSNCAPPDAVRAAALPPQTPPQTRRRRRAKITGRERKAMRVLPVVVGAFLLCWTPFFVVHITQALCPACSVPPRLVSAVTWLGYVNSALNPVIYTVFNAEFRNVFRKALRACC
The experiment in a line: Competitive binding to D4.4 dopamine receptor ([3H]-YM-09151-2 radioligand). Particulars: 5 mcM compound; human recombinant D4.4 in CHO cells; na = no activity. The method, then: Compounds were assayed for competitive binding to D2 SHORT and D4.4 type dopamine receptors. Both receptor types are expressed as human recombinant proteins in CHO cells, as described, for example, in Jarvis et al. (1973); Van Tol et al. (1991) and Van Tol et al. (1992).
Determination of binding to D4.4 receptor was performed using [^3H]-YM-09151-2 (70-87 Ci/mmol, 0.3 nM), as a radioligand, in with the presence of various concentrations of the tested compound. Reactions were carried out in 50 mM TRIS-HCl (pH 7.4) containing 5 mM MgCl2, 5 mM EDTA, 5 mM KCl and 1.5 mM CaCl2, for 60 minutes at 22° C. The reaction was terminated by rapid vacuum filtration onto glass fiber filters. Radioactivity trapped onto the filters was determined (counted) and compared to control values in order to accurately evaluate any interaction of the tested compound(s) with the cloned dopamine D4.4 binding site.

Assay [1] deals with T2, PDE5 partially purified from human platelets (Homo sapiens, UniProt O76074).
T2 construct: PDE5 partially purified from human platelets was used; from tissue; host or cells: human platelets
The experiment in a line: Phosphodiesterase Type 5 (PDE5) Inhibition. As to conditions: for IC50 / PDE5 IC50, 10^−6 M: 'active' = observed activity not quantitated; for IC50: read-out: PDE5 IC50, 10^−6 M. The class given is biochemical. The method, then:
Phosphodiesterase type 5 (PDE5) catalyzes the conversion of cAMP or cGMP to their respective monophosphate forms. PDE5 has a high Km for cAMP and a low Km for cGMP, is insensitive to Ca^2+/calmodulin or cGMP regulation, and is relatively sensitive to inhibitors such as dipyridamol and zaprinast.
PDE5 partially purified from human platelets was used. The tested compound (at a concentration of 0.1, 1, 20 or 50 μM) and/or vehicle was incubated with 3.5 μg enzyme and 1 μM cGMP containing 0.01 μM [^3H]cGMP in Tris buffer pH 7.5 for 20 minutes at 30° C. Since enzyme activity may change from lot to lot, the concentration used was adjusted if required.
The reaction was terminated by boiling the reaction mixture for 2 minutes. The obtained GMP was then converted to guanosine by addition of 10 mg/ml snake venom nucleotidase and further incubation at 30° C. for 10 minutes. Unhydrolyzed cGMP was bound to AG1-X2 resin, and remaining [^3H]Guanosine in the aqueous phase was quantitated by scintillation counting.

Structures are written as SMILES.

What is called inhibition is the relative decrease from the control value, in per cent. Broadly, the IC50 is the point on the concentration scale where inhibition reaches its midpoint. Consider `O=c1[nH]c(CN2CCN(c3nccs3)CC2)nc2ccccc12` [Compound B-11, 2-((4-(thiazol-2-yl)piperazin-1-yl)methyl)quinazolin-4(3H)-one], for which, on D4.4 receptor, the inhibition at 5 µM stood at 18%. Besides, the inhibition at 50 µM in assay [1] (50 mcM compound, 1 μM cGMP) amounted to 68%. The IC50 in assay [1] stood at 2 µM.

As for `O=c1[nH]c(CN2CCN(c3ccccn3)CC2)nc2ccccc12` [Compound 102, 2-[(4-pyridin-2-ylpiperazin-1-yl)methyl]quinazolin-4(3H)-one], the inhibition at 50 µM in assay [1] (50 mcM compound, 1 μM cGMP) turned out to be 29%. The “PDE5 IC50, 10^−6 M” value in assay [1] is on record as “active”.

As for `O=c1[nH]c2ccccc2nc1CN1CC=C(c2ccccc2)CC1` [Compound B-42, 3-((5,6-dihydro-4-phenylpyridin-1(2H)-yl)methyl)quinoxalin-2(1H)-one], the inhibition at 5 µM at D4.4 receptor was 62%.

Regarding `O=c1c2ccccc2nc(CN2CCN(c3ncccn3)CC2)n1Cc1ccccc1` [Compound B-75, 3-benzyl-2-((4-(pyrimidin-2-yl)piperazin-1-yl)methyl)quinazolin-4(3H)-one], in assay [1] (50 mcM compound, 1 μM cGMP), the inhibition at 50 µM worked out at 73%. Also, in assay [1], the IC50 was 21 µM.

Turning to `O=c1[nH]c(CN2CCN(c3cccc(O)c3)CC2)nc2cc(Cl)ccc12` [Compound B-8, 7-chloro-2-((4-(3-hydroxyphenyl)piperazin-1-yl)methyl)quinazolin-4(3H)-one], the inhibition at 5 µM at D4.4 receptor was 90%. Besides, the inhibition at 50 µM in assay [1] (50 mcM compound, 1 μM cGMP) came out at 28%. The “PDE5 IC50, 10^−6 M” value in assay [1] was “active”.

For `O=c1[nH]c2ccccc2nc1CN1CCN(c2ncccn2)CC1` [Compound B-44, 3-((4-(pyrimidin-2-yl)piperazin-1-yl)methyl)quinoxalin-2(1H)-one], the inhibition at 5 µM at D4.4 receptor is 29%.

With `COc1ccccc1N1CCN(Cc2nc3cc(Cl)ccc3c(=O)[nH]2)CC1` [Compound B-38, 7-chloro-2-((4-(2-methoxyphenyl)piperazin-1-yl)methyl)quinazolin-4(3H)-one], the inhibition at 5 µM on D4.4 receptor was found to be 65%.

Take `N#Cc1ccccc1N1CCN(Cc2nc3ccccc3[nH]c2=O)CC1` [Compound B-34, 2-(4-((1,2-dihydro-2-oxoquinoxalin-3-yl)methyl)piperazin-1-yl)benzonitrile]: the inhibition at 5 µM on D4.4 receptor was 84%.

As to `O=c1[nH]c(CN2CCN(c3ncccn3)CC2)nc2cc(Cl)ccc12` [Compound B-72, 7-chloro-2-((4-(pyrimidin-2-yl)piperazin-1-yl)methyl)quinazolin-4(3H)-one], at D4.4 receptor, the inhibition at 5 µM was found to be 70%. The inhibition at 50 µM in assay [1] (50 mcM compound, 1 μM cGMP) amounted to 62%. Moreover, the IC50 in assay [1] worked out at 2 µM. Besides, in assay [1] (referring to Table 2 (PDE5 and D4 assays)), the “exhibit both PDE5 inhibition and D4 agonist activity (dual activity)” value was “both PDE5 inhibition and D4 agonist activity”.

For `O=c1[nH]c(CN2CCCC(c3ccccn3)C2)nc2ccccc12` (centres unmarked) [Compound B-83, 2-((3-(pyridin-2-yl)piperidin-1-yl)methyl)quinazolin-4(3H)-one], at D4.4 receptor, the inhibition at 5 µM worked out at 57%.

Regarding `O=c1[nH]c(CN2CC=C(c3ccccc3)CC2)nc2cc(Cl)ccc12` [Compound B-47, 7-chloro-2-((5,6-dihydro-4-phenylpyridin-1(2H)-yl)methyl)quinazolin-4(3H)-one], at D4.4 receptor, the inhibition at 5 µM amounted to 63%.

For `COc1ccccc1C1=CCN(Cc2nc3ccccc3c(=O)[nH]2)CC1` [Compound B-31, 2-((5,6-dihydro-4-(2-methoxyphenyl)pyridin-1(2H)-yl)methyl)quinazolin-4(3H)-one], the inhibition at 5 µM at D4.4 receptor came to 74%.

With `O=c1[nH]c(CN2CCN(c3ncccn3)CC2)nc2nc[nH]c12` [Compound 408, 2-((4-(pyrimidin-2-yl)piperazin-1-yl)methyl)-1H-purin-6(7H)-one], the inhibition at 5 µM on D4.4 receptor was found to be 33%. The inhibition at 50 µM in assay [1] (50 mcM compound, 1 μM cGMP) was determined as 32%. Also, in assay [1], the “PDE5 IC50, 10^−6 M” value is given as “active”.

As for `O=c1[nH]c(CN2CC=C(c3ccccn3)CC2)nc2ccccc12` [Compound 115, 2-(3′,6′-dihydro-2,4′-bipyridin-1′(2′H)-ylmethyl)quinazolin-4(3H)-one], the inhibition at 5 µM on D4.4 receptor was determined as 66%.

With `CCn1c(=O)c2[nH]c(CN3CCN(c4cccc(O)c4)CC3)nc2n(CC)c1=O` [Xan1, 1,3-diethyl-8-((4-(3-hydroxyphenyl)piperazin-1-yl)methyl)-1H-purine-2,6(3H,7H)-dione], the inhibition at 5 µM at D4.4 receptor was 54%.

On to `O=c1[nH]c(CN2CCN(c3ncccc3OCc3ccccc3)CC2)nc2ccccc12` [Compound B-10, 2-((4-(3-(benzyloxy)pyridin-2-yl)piperazin-1-yl)methyl)quinazolin-4(3H)-one], for which the inhibition at 5 µM at D4.4 receptor was found to be 60%. Moreover, the inhibition at 50 µM in assay [1] (50 mcM compound, 1 μM cGMP) was found to be 40%. For the same compound, the “PDE5 IC50, 10^−6 M” value in assay [1] was “active”.

Take `CCCn1cnc2nc(CN3CCN(c4cccc(O)c4)CC3)[nH]c(=O)c21` [Compound B-33, 2-((4-(3-hydroxyphenyl)piperazin-1-yl)methyl)-7-propyl-1H-purin-6(7H)-one]: at D4.4 receptor, the inhibition at 5 µM turned out to be 11%. The compound further had an inhibition at 50 µM in assay [1] (50 mcM compound, 1 μM cGMP) of 31%. In addition, in assay [1], the “PDE5 IC50, 10^−6 M” value is on record as “active”.

Regarding `O=c1[nH]c(CN2CCN(c3cccc(O)c3)CC2)nc2cccc(F)c12` [Compound B-36, 5-fluoro-2-((4-(3-hydroxyphenyl)piperazin-1-yl)methyl)quinazolin-4(3H)-one], the inhibition at 5 µM on D4.4 receptor came out at 82%.

With `O=c1[nH]c(CN2CCC=C(c3ccccn3)C2)nc2ccccc12` [Compound B-82, 2-((5,6-dihydro-3-(pyridin-2-yl)pyridin-1(2H)-yl)methyl)quinazolin-4(3H)-one], the inhibition at 5 µM at D4.4 receptor was 12%. The “PDE5 % inhibition at 50 mcM” value in assay [1] (50 mcM compound, 1 μM cGMP) is on record as “Problems with solubility”. The “PDE5 IC50, 10^−6 M” value in assay [1] is given as “Problems with solubility”.

As for `CCOc1ccccc1N1CCN(Cc2nc3cc(Cl)ccc3c(=O)[nH]2)CC1` [Compound B-45, 7-chloro-2-((4-(2-ethoxyphenyl)piperazin-1-yl)methyl)quinazolin-4(3H)-one], the inhibition at 5 µM on D4.4 receptor was 46%.

For the compound `O=c1[nH]c(CN2CC=C(c3ccccn3)CC2)nc2cc(Cl)ccc12` [Compound B-71, 7-chloro-2-((5,6-dihydro-4-(pyridin-2-yl)pyridin-1(2H)-yl)methyl)quinazolin-4(3H)-one], testing at 50 µM in assay [1] (50 mcM compound, 1 μM cGMP) gave an inhibition of 63%. Moreover, the IC50 in assay [1] is 27 µM.

On to `CCOc1cccnc1N1CCN(Cc2nc3ccccc3c(=O)[nH]2)CC1` [Compound B-13, 2-((4-(3-ethoxypyridin-2-yl)piperazin-1-yl)methyl)quinazolin-4(3H)-one], for which, at D4.4 receptor, the inhibition at 5 µM was 86%.

As to `COc1cc2nc(CN3CCN(c4cccc(O)c4)CC3)[nH]c(=O)c2cc1OC` [Compound B-4, 2-((4-(3-hydroxyphenyl)piperazin-1-yl)methyl)-6,7-dimethoxyquinazolin-4(3H)-one], at D4.4 receptor, the inhibition at 5 µM is 91%. Further, the inhibition at 50 µM in assay [1] (50 mcM compound, 1 μM cGMP) was determined as 25%. In addition, the “PDE5 IC50, 10^−6 M” value in assay [1] is reported as “active”.

On to `CCOc1cccnc1N1CCN(Cc2nc3cc(Cl)ccc3c(=O)[nH]2)CC1` [Compound B-43, 7-chloro-2-((4-(3-ethoxypyridin-2-yl)piperazin-1-yl)methyl)quinazolin-4(3H)-one], for which at 50 µM the inhibition in assay [1] (50 mcM compound, 1 μM cGMP) was 26%. The “PDE5 IC50, 10^−6 M” value in assay [1] is on record as “active”.

Regarding `O=c1[nH]c(CN2CCC(c3ccccc3)CC2)nc2ccccc12` [Compound B-51, 2-((4-phenylpiperidin-1-yl)methyl)quinazolin-4(3H)-one], the inhibition at 5 µM at D4.4 receptor was 88%.

For `O=c1[nH]c2ccccc2nc1CN1CCN(c2cccc(O)c2)CC1` [Compound B-37, 3-((4-(3-hydroxyphenyl)piperazin-1-yl)methyl)quinoxalin-2(1H)-one], at D4.4 receptor, the inhibition at 5 µM stood at 62%.

For `O=c1[nH]c(CN2CCN(c3cccc(O)c3)CC2)nc2cc(Cl)ccc12` [Compound B-3], at D4.4 receptor, the “D4.4(h) Competitive Binding, % at 5 mcM” value amounted to 82%.

Consider `COc1ccccc1C1=CCN(Cc2nc3cc(Cl)ccc3c(=O)[nH]2)CC1` [Compound B-39, 7-chloro-2-((5,6-dihydro-4-(2-methoxyphenyl)pyridin-1(2H)-yl)methyl)quinazolin-4(3H)-one], for which the inhibition at 5 µM on D4.4 receptor worked out at 95%.

Take `CCn1c(=O)c2[nH]c(CN3CC=C(c4ccccc4)CC3)nc2n(CC)c1=O` [Xan2]: the inhibition at 5 µM at D4.4 receptor came out at 25%.
